From US20030049807A1, “Micro-organism possessing enantioselective and regioselective nitrile hydratase/amidase activities” (priority 2001, published 2003) come the findings set out here.

In assay [1] the test system is nitrile hydratase/amidase activity of bacterial pellet of strain NCIMB 41108. Put plainly: Enzymatic activity of the whole-cell biocatalyst (wet bacterial pellet) towards nitrile/amide substrates, HPLC or GC. Type of assay: cell-based, Agrobacterium radiobacter 30″60. As to conditions: 30° C.; for enzymatic activity: 50 mg substrate, 250 mg wet pellet. The procedure: The enzymatic activity was evaluated using a bacterial pellet obtained after fermentation for 48 hours in fermentation medium as described below. Briefly, the culture was amplified from a single colony to begin with in a small volume of inoculating medium and then, for preparative purposes, in 100 ml of fermentation medium.
Fermentation medium: MgSO4 (0.5 g l^−1), ,CaCl2.6H2O (0.1 g l^−1), FeSO4 (0.4 g l^−1), CoCl2 (0.1 g l^−1), MnSO4 (0.01 g l^−1), (NH4)2SO4 (5 g l^−1), Yeast Extract (10 g l^31 1). The inducer, or the inducers, were added to the fermentation medium alone or in combination, sterilely, to a final concentration comprised of between 0.5-5 g/L. In particular, if not stated differently, valeronitrile, N-butyronitrile, isobutyronitrile and ε-caprolactam were used at a concentration respectively of 2.5 g/l and added in a single solution at the start of the process. To measure the basal activity of the strain 41108, no inducer was added to the fermentation medium.
Inoculation. […]
Reaction scheme. […] At preset time intervals, aliquots of the mixture were sterilely removed with a syringe, using a Minisart RC 25 filter 0,22 μm (Sartorius, Germany) and directly analysed by HPLC. The enzymatic activity was determined by the mean activity measured in the initial, linear phase of the conversion curve, relative to the wet weight of the bacterial paste. […]
Evaluation of the conversion percentages and of the enantiomeric excess. The percentage conversion of the substrate was measured by reverse phase HPLC using a reverse phase column of dimensions: 250×4.6 mm; 10 μm (Lichrosorb 10 RP18), and phosphate buffer at various percentages (10 mM, pH 2.5 e 3.5) with acetonitrile at 40 or 50% depending on the molecule to be detected. […] The e.e. values of the reaction products obtained from benzoylphenylpropionitrile were determined by HPLC fitted with a chiral column (dimensions: 100×4 mm; Chromtech AGP-column) and phosphate buffer used as eluent (10 mM, pH 7.0) with isopropanol (1%, v/v) and dimethyloctylamine (0,02%, v/v). […]

Assay [2] deals with nitrile-hydratase/amidase activity of the wild type strain. Put plainly: Nitrile-hydratase/amidase activity of the wild type parent strain after induction with valeronitrile. Type of assay: cell-based, Agrobacterium radiobacter. As to conditions: wild type strain sub-cultured with butyronitrile, induced with valeronitrile. As for the experimental part: The parent strain, characterised as Agrobacterium radiobacter, was isolated from a crude bacterial extract with antibiotic activity. In order to determine activity towards nitrilic substrates, it was sub-cultured in medium containing butyronitrile and after some passages and induction with valeronitrile, a weak nitrile-hydratase/amidase activity was measured on benzoylphenylpropionitrile (BPN) of the wild type strain as such selected. To obtain a semi-constitutive strain, an aliquot of wild type parent strain was subjected to a treatment of mutagenesis, constituted by two treatment cycles with ethylmethanesulphonate, one cycle with nitrosoguanidine and two of mutagenesis with UV irradiation.

`CC(C#N)c1ccccc1` (stereo not drawn) [α-methylbenzyl cyanide]: in assay [1] (pellet induced with valeronitrile and ε-caprolactam 0,25%, comparator not given), the “rate of transformation, times higher” value was “approximately 20 times”.
Take `CC(C#N)c1ccc(-c2ccccc2)c(F)c1` (stereo not drawn) [2-fluoro-α-methyl[1,1′-diphenyl]-4-acetonitrile]: the enzymatic activity in assay [1] (pellet induced with valeronitrile 0,2%, 24 hours) is reported as 0.26 IU g^−1 of wet cells.
Regarding `CC(C#N)c1cccc(Oc2ccccc2)c1` (stereo not drawn) [α-methyl-3-phenoxibenzen-acetonitrile], in assay [1] (pellet induced with valeronitrile 0,25%, 1 hour), the enzymatic activity is recorded as 5.23 IU g^−1 of wet cells.
As for `CC(C#N)c1cccc(C(=O)c2ccccc2)c1` (racemic) [benzoylphenylpropionitrile, 2-(3-benzoylphenyl)propionitrile], the nitrile-hydratase/amidase activity result in assay [2] was “weak”.
